Our source for the IC50 values is patent US20250223284A1, “REVERSIBLE DPP1 INHIBITORS AND USES THEREOF” (Insmed Incorporated, priority 2023, published 2025).

SMILES strings stand for the structures.

In general, IC50 refers to the concentration that gives 50% inhibition.

Chain of mouse DPP1 enzyme (P97821 25-134): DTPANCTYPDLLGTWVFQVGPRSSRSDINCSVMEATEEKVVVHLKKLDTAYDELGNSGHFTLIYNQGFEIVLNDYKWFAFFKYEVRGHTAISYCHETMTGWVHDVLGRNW
Chain of mouse DPP1 enzyme (P97821 231-393): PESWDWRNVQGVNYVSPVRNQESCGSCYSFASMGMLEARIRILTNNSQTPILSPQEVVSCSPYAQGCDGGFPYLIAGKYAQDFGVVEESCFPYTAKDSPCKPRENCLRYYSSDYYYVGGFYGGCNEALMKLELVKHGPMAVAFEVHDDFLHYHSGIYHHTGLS
Chain of mouse DPP1 enzyme (P97821 394-462): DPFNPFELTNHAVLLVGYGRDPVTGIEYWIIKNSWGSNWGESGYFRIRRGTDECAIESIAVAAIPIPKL
Chain of human DPP1 enzyme (P53634 25-134): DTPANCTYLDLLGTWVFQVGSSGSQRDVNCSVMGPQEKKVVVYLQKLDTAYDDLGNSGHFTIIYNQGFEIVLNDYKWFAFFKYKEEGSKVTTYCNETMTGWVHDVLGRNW
Chain of human DPP1 enzyme (P53634 231-394): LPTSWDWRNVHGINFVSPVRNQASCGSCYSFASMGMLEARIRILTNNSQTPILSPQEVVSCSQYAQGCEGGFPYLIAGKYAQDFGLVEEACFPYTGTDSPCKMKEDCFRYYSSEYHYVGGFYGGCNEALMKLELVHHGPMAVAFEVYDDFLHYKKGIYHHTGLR
Chain of human DPP1 enzyme (P53634 395-463): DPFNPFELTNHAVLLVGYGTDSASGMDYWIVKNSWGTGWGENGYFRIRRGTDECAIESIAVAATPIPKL

One assay has as its target human DPP1 enzyme (Homo sapiens (Human), UniProt P53634). Briefly: Human DPP1 Enzyme IC50 Assay. It counts as biochemical. To be noted: recombinant human DPP1 activated with cathepsin L, H-Gly-Arg-AMC substrate, 10 min pre-incubation at 37° C., MES pH 6.0. How it is done:
Recombinant human DPP1 enzyme (R&D Systems; Minneapolis, MN) was first proteolytically processed into its mature form using recombinant human cathepsin L (R&D Systems) in a buffer consisting of 20 mM citric acid pH 4.5, 150 mM NaCl, 1 mM EDTA and 10 mM DTT. Test articles were applied to activated human DPP1 enzyme in Assay Buffer (25 mM MES pH 6.0, 50 mM NaCl, 5 mM DTT) in a total reaction volume of 125 μL. 25 μL of compound in Assay Buffer plus 5% DMSO was first added to 50 μL of activated human DPP1 enzyme at a concentration of 1 ng/μL and allowed to pre-incubate for 10 minutes at 37° C. after which 50 μL of 1000 μM H-Gly-Arg-AMC substrate (Bachem; St. Torrance, CA) was added, giving final substrate concentration of 400 µM and a final DMSO concentration of 1%. Substrate cleavage was measured for 90 minutes at 37° C., with fluorescence at Excitation/Emission 350/450 nm measured every 5 minutes. DPP1 concentration was interpolated based on its activity relative to a standard curve of activated human recombinant DPP1 enzyme. IC50 values for each compound were calculated via the XLFit (IDBS Version 5.3.1.3) Add-On to Microsoft Excel using the four parameter fit equation y={A+[(B−A)]/[1+((C/x)^D)]}, which appears as equation number 205 (4 Parameter Logistic Model or Sigmoidal Dose-Response Model) in XLFit. Default constraints were used for each Parameter. IC50 was defined as the compound concentration at which 50% of enzyme activity was inhibited when compared to the no-compound control.
As for `Cn1c(=O)oc2ccc(-c3ccc(C[C@@H](C#N)NC(=O)[C@@H]4CNC[C@@](C)(O)CO4)cc3)cc21` (relative stereo) [Compound 2-A, (2S,6R*)—N-[(1S)-1-cyano-2-[4-(3-methyl-2-oxo-2,3-dihydro-1,3-benzoxazol-5-yl)phenyl]ethyl]-6-hydroxy-6-methyl-1,4-oxazepane-2-carboxamide], the IC50 is 39.6 nM. As to `CO[C@@]1(C)CNC[C@@H](C(=O)N[C@H](C#N)Cc2ccc(-c3ccc4oc(=O)n(C)c4c3)cc2)OC1` (relative stereo) [Compound 3-A, (2S,6S*)—N-[(1S)-1-cyano-2-[4-(3-methyl-2-oxo-2,3-dihydro-1,3-benzoxazol-5-yl)phenyl]ethyl]-6-methoxy-6-methyl-1,4-oxazepane-2-carboxamide], the IC50 amounted to 145 nM. On the same count and under the same terms, to `CO[C@]1(C)CNC[C@@H](C(=O)N[C@H](C#N)Cc2ccc(-c3ccc4oc(=O)n(C)c4c3)cc2)OC1` (relative stereo) [Compound 3-B, (2S,6R*)—N-[(1S)-1-cyano-2-[4-(3-methyl-2-oxo-2,3-dihydro-1,3-benzoxazol-5-yl)phenyl]ethyl]-6-methoxy-6-methyl-1,4-oxazepane-2-carboxamide] belongs 206 nM.

A further assay addresses mouse DPP1 enzyme (Mus musculus (Mouse), UniProt P97821). Put plainly: Mouse DPP1 Enzyme IC50 Assay. It counts as biochemical. To be noted: active mouse DPP1 enzyme, H-Gly-Arg-AMC substrate, 10 min pre-incubation at 37° C., MES pH 5.5. How it is done: Test articles were applied to active mouse DPP1 enzyme (R&D Systems; Minneapolis, MN) in Assay Buffer (50 mM MES pH 5.5, 50 mM NaCl, 5 mM DTT) in a total reaction volume of 125 μL. 25 μL of compound in Assay Buffer plus 5% DMSO was first added to 50 μL of active mouse DPP1 enzyme at a concentration of 62.5 pg/μL and allowed to pre-incubate for 10 minutes at 37° C. after which 50 μL of 1000 μM H-Gly-Arg-AMC substrate (Bachem; St. Torrance, CA) was added, giving final substrate concentration of 400 µM and a final DMSO concentration of 1%. Substrate cleavage was measured for 90 minutes at 37° C., with fluorescence at Excitation/Emission 350/450 nm measured every 5 minutes. DPP1 concentration was interpolated based on its activity relative to a standard curve of recombinant active mouse DPP1 enzyme. IC50 values for each compound were calculated via the XLFit (IDBS Version 5.3.1.3) Add-On to Microsoft Excel using the four parameter fit equation y=(A+((B−A)/(1+ ((C/x)^D)))), which appears as equation number 205 (4 Parameter Logistic Model or Sigmoidal Dose-Response Model) in XLFit. Default constraints were used for each Parameter. IC50 was defined as the compound concentration at which 50% of enzyme activity was inhibited when compared to the no-compound control.
`Cn1c(=O)oc2ccc(-c3ccc(C[C@@H](C#N)NC(=O)[C@@H]4CNC[C@@](C)(O)CO4)cc3)cc21` (relative stereo) [Compound 2-A, (2S,6R*)—N-[(1S)-1-cyano-2-[4-(3-methyl-2-oxo-2,3-dihydro-1,3-benzoxazol-5-yl)phenyl]ethyl]-6-hydroxy-6-methyl-1,4-oxazepane-2-carboxamide] gave an IC50 of 51.7 nM. `CO[C@@]1(C)CNC[C@@H](C(=O)N[C@H](C#N)Cc2ccc(-c3ccc4oc(=O)n(C)c4c3)cc2)OC1` (relative stereo) [Compound 3-A, (2S,6S*)—N-[(1S)-1-cyano-2-[4-(3-methyl-2-oxo-2,3-dihydro-1,3-benzoxazol-5-yl)phenyl]ethyl]-6-methoxy-6-methyl-1,4-oxazepane-2-carboxamide]: the half-maximal inhibitory concentration (IC50) is 130 nM. Consider `CO[C@]1(C)CNC[C@@H](C(=O)N[C@H](C#N)Cc2ccc(-c3ccc4oc(=O)n(C)c4c3)cc2)OC1` (relative stereo) [Compound 3-B, (2S,6R*)—N-[(1S)-1-cyano-2-[4-(3-methyl-2-oxo-2,3-dihydro-1,3-benzoxazol-5-yl)phenyl]ethyl]-6-methoxy-6-methyl-1,4-oxazepane-2-carboxamide], for which the midpoint of inhibition, the IC50, lay at 251 nM. Same read-out and setting: as for `Cn1c(=O)oc2ccc(-c3ccc(C[C@@H](C#N)NC(=O)[C@H]4CCCCCNC4)cc3)cc21` (single isomer, unassigned), the figure is 54 nM.

As for `Cn1c(=O)oc2ccc(-c3ccc(C[C@@H](C#N)NC(=O)[C@@H]4CNCCCCO4)cc3)cc21` (single isomer, unassigned) [drawing 490], 41.4 ± 4.5 nM corresponded to half-maximal inhibition (IC50). Take `Cn1c(=O)oc2ccc(-c3ccc(C[C@@H](C#N)NC(=O)[C@@H]4CNC[C@](C)(O)CO4)cc3)cc21` (single isomer, unassigned) [drawing 491]: the IC50 amounted to 351 ± 223 nM. On to `CC[C@@]1(O)CNC[C@@H](C(=O)N[C@H](C#N)Cc2ccc(-c3ccc4oc(=O)n(C)c4c3)cc2)OC1` (single isomer, unassigned) [drawing 492], for which the half-maximal inhibitory concentration (IC50) amounted to 36.9 nM. On the same count and under the same terms, as for `CC[C@]1(O)CNC[C@@H](C(=O)N[C@H](C#N)Cc2ccc(-c3ccc4oc(=O)n(C)c4c3)cc2)OC1` (single isomer, unassigned) [drawing 493], the figure is 4040 nM; as for `CC(C)[C@]1(O)CNC[C@@H](C(=O)N[C@H](C#N)Cc2ccc(-c3ccc4oc(=O)n(C)c4c3)cc2)OC1` (single isomer, unassigned) [drawing 494], > 5000 nM; as for `Cn1c(=O)oc2ccc(-c3ccc(C[C@@H](C#N)NC(=O)[C@@H]4CNCC5(CCO5)CO4)cc3)cc21` (single isomer, unassigned) [drawing 495], 4.2 ± 0.8 nM. `Cn1c(=O)oc2ccc(-c3ccc(C[C@@H](C#N)NC(=O)[C@@H]4CNC[C@@]5(CCO5)CO4)cc3)cc21` (single isomer, unassigned) [drawing 496] returned an IC50 of 2.36 ± 0.3 nM. On the same count and under the same terms, as for `Cn1c(=O)oc2ccc(-c3ccc(C[C@@H](C#N)NC(=O)[C@@H]4CNCCCCO4)cc3)cc21` (single isomer, unassigned) [drawing 497], the figure is 33.9 ± 4 nM. Still for that read-out and setting: to `CN1CC2(C1)OC(=O)c1ccc(-c3ccc(C[C@@H](C#N)NC(=O)[C@@H]4CNCCCCO4)cc3)cc12` (single isomer, unassigned) [drawing 498] belongs 17.8 ± 2 nM; to `CCO[C@@H]1CCNC[C@@H](C(=O)N[C@H](C#N)Cc2ccc(-c3ccc4oc(=O)n(C)c4c3)cc2)OC1` (single isomer, unassigned) [drawing 499], 6.05 ± 2 nM.

`Cn1c(=O)oc2ccc(-c3ccc(C[C@@H](C#N)NC(=O)C4CCCCCNC4)c(F)c3)cc21` (single isomer, unassigned) [drawing 500] registered an IC50 of 13.1 ± 3.7 nM. For `Cn1c(=O)oc2ccc(-c3ccc(C[C@@H](C#N)NC(=O)[C@H]4CCCCCNC4)c(F)c3)cc21` (single isomer, unassigned) [drawing 501], the concentration for half-maximal inhibition (IC50) came to 148 ± 16 nM. For `CCO[C@@]1(C)CNC[C@@H](C(=O)N[C@H](C#N)Cc2ccc(-c3ccc4oc(=O)n(C)c4c3)cc2)OC1` (single isomer, unassigned) [drawing 503], the half-maximal inhibitory concentration (IC50) is > 5000 nM. Turning to `CCO[C@]1(C)CNC[C@@H](C(=O)N[C@H](C#N)Cc2ccc(-c3ccc4oc(=O)n(C)c4c3)cc2)OC1` (single isomer, unassigned) [drawing 504], inhibition was half-maximal at 1640 nM (IC50). The same measure, in the same setting: as for `CO[C@@H]1CCO[C@H](C(=O)N[C@H](C#N)Cc2ccc(-c3ccc4oc(=O)n(C)c4c3)cc2)CNC1` (single isomer, unassigned) [drawing 505], the figure is 7.04 nM; as for `Cn1c(=O)oc2ccc(-c3ccc(C[C@@H](C#N)NC(=O)C4CCCCCNC4)cc3)cc21` (stereo partly drawn) [IA], 63.4 nM; as for `Cn1c(=O)oc2ccc(-c3ccc(C[C@@H](C#N)NC(=O)[C@@H]4CCCCCNC4)cc3)cc21` [drawing 502], 629 nM.
